For one test, the target named is T1, h FPR2 (Homo sapiens, UniProt P25090).
T1 construct: expressed in transfected cells
T1 sequence (P25090 1-351): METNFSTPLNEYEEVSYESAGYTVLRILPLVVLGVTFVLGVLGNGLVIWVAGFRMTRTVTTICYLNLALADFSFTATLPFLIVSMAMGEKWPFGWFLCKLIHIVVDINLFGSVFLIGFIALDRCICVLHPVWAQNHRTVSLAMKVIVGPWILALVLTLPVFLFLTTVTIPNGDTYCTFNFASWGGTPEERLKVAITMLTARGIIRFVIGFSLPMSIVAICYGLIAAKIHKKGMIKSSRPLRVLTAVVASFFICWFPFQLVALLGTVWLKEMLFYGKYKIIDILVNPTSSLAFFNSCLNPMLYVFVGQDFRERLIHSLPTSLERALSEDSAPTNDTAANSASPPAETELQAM
Kind of test: Agonistic activity in hFPR2-Aq-CHO cells (FLIPR Calcium 5 fluorescence assay). The note with it: 11 point half log dilution, final assay concentration from 10µM. The class given is cell-based. In a few lines: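 hFPR2-Aq-CHO cells were loaded with Calcium 5 dye for 30 min at 37 °C and equilibrated 10 min at room temperature. Compound (11 points, 10 µM to 100 pM final) was added in HBSS/HEPES/probenecid buffer pH 7.4. Fluorescence rise over basal across 5 min, relative to no-compound wells, gave EC50.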
With `COc1ccc([C@@H]2CN(Cc3cnn(S(C)(=O)=O)c3)CC[C@H]2NC(=O)Nc2ccc(Cl)cc2)nc1` (relative stereo) [Ex-125, trans-1-(4-Chlorophenyl)-3-[3-(5-methoxy-pyridin-2-yl)-1-[(1-methylsulfonyl-1H-pyrazol-4-yl)-methyl]-piperidin-4-yl]-urea], the EC50 (as a rule, the midpoint of the concentration-response curve) came out at 0.09 nM.
On to `Cc1cc(NC(=O)N[C@@H]2CCN(c3ccncn3)C[C@H]2c2ccc(Cl)cn2)sn1` (relative stereo) [Ex-13, trans-1-(5-chloro-1'-pyrimidin-4-yl-1',2',3',4',5',6'-hexahydro-[2,3']bipyridinyl-4'-yl)-3-(3-methyl-isothiazol-5-yl)-urea], for which the EC50 amounted to 2 nM.
Same read-out and setting: the figure for `Cc1cc(NC(=O)N[C@@H]2CCN(c3cc(C(F)(F)F)ncn3)C[C@H]2c2ccc(Cl)cn2)sn1` (relative stereo) [Ex-27, trans-1-[5-chloro-1'-(6-trifluoromethyl-pyrimidin-4-yl)-1',2',3',4',5',6'-hexahydro-[2,3']bipyridinyl-4'-yl]-3-(3-methyl-isothiazol-5-yl)-urea] is 6 nM.
Consider `O=C(Nc1ccc(Cl)cc1)N[C@@H]1CCN(Cc2ncccn2)C[C@H]1c1ccc(Cl)s1` (single isomer, unassigned) [Ex-46, trans-1-(4-chlorophenyl)-3-[3-(5-chlorothiophen-2-yl)-1-(pyrimidin-2-ylmethyl)piperidin-4-yl]urea], for which the EC50 amounted to 0.4 nM.
On the same count and under the same terms, the figure for `CS(=O)(=O)n1ccc(CN2CC[C@@H](NC(=O)Nc3ccc(Cl)cc3)[C@H](c3ccc(Cl)s3)C2)n1` (single isomer, unassigned) [Ex-77, trans-1-(4-chlorophenyl)-3-[3-(5-chlorothiophen-2-yl)-1-[(1-methanesulfonyl-1H-pyrazol-3-yl)methyl]piperidin-4-yl]urea] is 0.06 nM; for `COc1ccc([C@@H]2CN(C3CCS(=O)(=O)CC3)CC[C@H]2NC(=O)Nc2ccc(Cl)cc2)nc1` (relative stereo) [Ex-110, trans-1-(4-chlorophenyl)-3-(1-(1,1-dioxidotetrahydro-2H-thiopyran-4-yl)-3-(5-methoxypyridin-2-yl)piperidin-4-yl)urea] it is 49 nM.
For `O=C(Nc1ccc(Cl)cc1)N[C@@H]1CCN(Cc2ccc(C(F)(F)F)nc2)C[C@H]1c1ccc(Cl)s1` (relative stereo) [Ex-74, trans-1-(4-chlorophenyl)-3-[3-(5-chlorothiophen-2-yl)-1-{[6-(trifluoromethyl)pyridin-3-yl]methyl}piperidin-4-yl]urea], the EC50 came out at 2 nM.
Same read-out and setting: the figure for `COc1ccc([C@@H]2CN(CC3CC(O)C3)CC[C@H]2NC(=O)Nc2ccc(Cl)cc2)nc1` (single isomer, unassigned) [Ex-205, trans-1-(4-chloro-phenyl)-3-[1'-(3-hydroxy-cyclobutylmethyl)-5-methoxy-1',2',3',4',5',6'-hexahydro-[2,3']bipyridinyl-4'-yl]-urea] is 4 nM; for `CS(=O)(=O)n1ccc(CN2CC[C@@H](NC(=O)Nc3ccccc3)[C@H](c3ccc(Cl)s3)C2)n1` (single isomer, unassigned) [Ex-57, trans-1-(-3-(5-chlorothiophen-2-yl)-1-((1-(methylsulfonyl)-1H-pyrazol-3-yl)methyl)piperidin-4-yl)-3-phenylurea] it is 55 nM.
For the molecule `COCCCN1CC[C@@H](NC(=O)Nc2ccc(Cl)cc2)[C@H](c2ccc(OC)cn2)C1` (single isomer, unassigned) [Ex-192, trans-1-(4-chlorophenyl)-3-[1-(3-methoxypropyl)-3-(5-methoxypyridin-2-yl)piperidin-4-yl]urea], the EC50 stood at 58 nM.
For the molecule `COc1ccc([C@@H]2CN(C)CC[C@H]2NC(=O)Nc2ccc(Cl)cc2)nc1` (relative stereo) [Ex-126, trans-1-(4-Chlorophenyl)-3-[3-(5-methoxy-pyridin-2-yl)-1-methyl-piperidin-4-yl]-urea], the EC50 was found to be 1.2 nM.
For `COc1ccc([C@@H]2CN(CC3CC3)CC[C@H]2NC(=O)Nc2ccc(Cl)cc2)nc1` (relative stereo) [Ex-127, trans-1-(4-Chlorophenyl)-3-[1-(cyclopropyl-methyl)-3-(5-methoxy-pyridin-2-yl)-piperidin-4-yl]-urea], the EC50 worked out at 0.16 nM.
On the same count and under the same terms, the figure for `COc1ccc([C@@H]2CN(CC3(O)COC3)CC[C@H]2NC(=O)Nc2cc(C)ns2)nc1` (relative stereo) [Ex-217, trans-1-[1'-(3-hydroxy-oxetan-3-ylmethyl)-5-methoxy-1',2',3',4',5',6'-hexahydro-[2,3']bipyridinyl-4'-yl]-3-(3-methyl-isothiazol-5-yl)-urea] is 6 nM; for `COc1ccc([C@@H]2CN(c3ccnc(C)n3)CC[C@H]2NC(=O)Nc2cc(C)ns2)nc1` (relative stereo) [Ex-211, trans-1-[5-methoxy-1'-(2-methyl-pyrimidin-4-yl)-1',2',3',4',5',6'-hexahydro-[2,3']bipyridinyl-4'-yl]-3-(3-methyl-isothiazol-5-yl)-urea] it is 7 nM.
The same measure, in the same setting: the figure for `COc1ccc([C@@H]2CN(C(=O)c3cnccc3C)CC[C@H]2NC(=O)Nc2ccc(Cl)cc2)nc1` (single isomer, unassigned) [Ex-52, trans-1-(4-chlorophenyl)-3-[3-(5-methoxypyridin-2-yl)-1-[(4-methylpyridin-3-yl)carbonyl]piperidin-4-yl]urea] is 0.5 nM; for `COc1ccc([C@@H]2CN(CC3CCNCC3)CC[C@H]2NC(=O)Nc2ccc(Cl)cc2)nc1` (single isomer, unassigned) [Ex-124, trans-1-(4-chlorophenyl)-3-(3-(5-methoxypyridin-2-yl)-1-(piperidin-4-ylmethyl)piperidin-4-yl)urea] it is 0.03 nM; for `COc1ccc([C@@H]2CN(CC3CCN(C)CC3)CC[C@H]2NC(=O)Nc2ccc(Cl)cc2)nc1` (relative stereo) [Ex-147, trans-1-(4-Chlorophenyl)-3-[3-(5-methoxy-pyridin-2-yl)-1-[(1-methyl-piperidin-4-yl)-methyl]-piperidin-4-yl]-urea] it is 0.4 nM.
Regarding `Cc1cc(NC(=O)N[C@@H]2CCN(c3ccncn3)C[C@H]2c2ccc(Cl)cn2)sn1` (single isomer, unassigned) [Ex-16, trans-1-(5-chloro-1'-pyrimidin-4-yl-1',2',3',4',5',6'-hexahydro-[2,3']bipyridinyl-4'-yl)-3-(3-methyl-isothiazol-5-yl)-urea], the EC50 amounted to 0.9 nM.
The same measure, in the same setting: the figure for `COc1ccc([C@@H]2CN(CC3(O)CC3)CC[C@H]2NC(=O)Nc2cc(C)ns2)nc1` (relative stereo) [Ex-182, trans-1-[1'-(1-hydroxy-cyclopropylmethyl)-5-methoxy-1',2',3',4',5',6'-hexahydro-[2,3']bipyridinyl-4'-yl]-3-(3-methyl-isothiazol-5-yl)-urea] is 2 nM; for `COc1ccc([C@@H]2CN(C(=O)c3ccc(C(F)(F)F)nc3)CC[C@H]2NC(=O)Nc2ccc(C#N)cc2)nc1` (relative stereo) [Ex-141, trans-1-(4-Cyano-phenyl)-3-[3-(5-methoxy-pyridin-2-yl)-1-[6-(trifluoromethyl)-pyridine-3-carbonyl]-piperidin-4-yl]-urea] it is 1.2 nM; for `COc1ccc([C@@H]2CN(C(=O)C3COC3)CC[C@H]2NC(=O)Nc2cc(C)ns2)nc1` (relative stereo) [Ex-119, trans-1-[3-(5-Methoxy-pyridin-2-yl)-1-(oxetane-3-carbonyl)-piperidin-4-yl]-3-(3-methyl-isothiazol-5-yl)-urea] it is 9 nM.
Same read-out and setting: the figure for `COc1ccc([C@@H]2CN(CC(N)=O)CC[C@H]2NC(=O)Nc2ccc(Cl)cc2)nc1` (single isomer, unassigned) [Ex-170, trans-2-[4-[[(4-Chlorophenyl)-carbamoyl]amino]-3-(5-methoxy-pyridin-2-yl)-piperidin-1-yl]-acetamide] is 0.3 nM; for `COc1ccc([C@@H]2CN(C(=O)CN(C)C)CC[C@H]2NC(=O)Nc2cc(C)ns2)nc1` (relative stereo) [Ex-118, trans-1-[1-(2-Dimethylamino-acetyl)-3-(5-methoxy-pyridin-2-yl)-piperidin-4-yl]-3-(3-methyl-isothiazol-5-yl)-urea] it is 5 nM.
Same read-out and setting: the figure for `COc1ccc([C@@H]2CN(CC3CC(O)C3)CC[C@H]2NC(=O)Nc2ccc(Cl)cc2)nc1` (single isomer, unassigned) [Ex-203, trans-1-(4-chloro-phenyl)-3-[1'-(3-hydroxy-cyclobutylmethyl)-5-methoxy-1',2',3',4',5',6'-hexahydro-[2,3']bipyridinyl-4'-yl]-urea] is 0.7 nM.

The test is the same for the next values; noted with them: agonistic response at 0.1µM.
On to `COc1ccc([C@@H]2CN(C(=O)CO)CC[C@H]2NC(=O)Nc2ccccc2)nc1` (relative stereo) [Ex-139, trans-1-[1-(2-Hydroxy-acetyl)-3-(5-methoxy-pyridin-2-yl)-piperidin-4-yl]-3-phenyl-urea], for which the activation at 0.1 µM stood at 34%.
For `COc1ccc([C@@H]2CN(c3ccncn3)C(=O)C[C@H]2NC(=O)Nc2ccc(Cl)cc2)nc1` (relative stereo) [Ex-25, trans-1-(4-chlorophenyl)-3-[5-(5-methoxypyridin-2-yl)-2-oxo-1-(pyrimidin-4-yl)piperidin-4-yl]urea], the activation at 0.1 µM was found to be 17%.
On the same count and under the same terms, the figure for `COc1ccc([C@@H]2CN(CC(F)F)CC[C@H]2NC(=O)Nc2ccc(C#N)cc2)nc1` (relative stereo) [Ex-175, trans-1-(4-Cyano-phenyl)-3-[1-(2,2-difluoro-ethyl)-3-(5-methoxy-pyridin-2-yl)-piperidin-4-yl]-urea] is 17%.

Source of the values: EP3789378A1, “PIPERIDINES OR PIPERIDONES SUBSTITUTED WITH UREA AND HETEROARYL” (Grünenthal GmbH, priority 2019, dated 2021).
